Measurements reported in PubChem BioAssay (NCI).
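GI50: concentration for 50% inhibition of growth. TGI denotes the concentration required for complete inhibition of growth.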

Experiments:
Assay in all cases: inhibition of tumour cell growth, NCI panel, 384-well format
[1] = tested on: 786-0 renal
[2] = tested on: A498 renal
[3] = tested on: A549 NSCLC
[4] = tested on: ACHN renal
[5] = tested on: BT-549 breast
[6] = tested on: CAKI-1 renal
[7] = tested on: CCRF-CEM leukemia
[8] = tested on: COLO 205 colon
[9] = tested on: DU-145 prostate
[10] = tested on: HCC-2998 colon
[11] = tested on: HCT-116 colon
[12] = tested on: HCT-15 colon
[13] = tested on: HL-60(TB) leukemia
[14] = tested on: HOP-62 NSCLC
[15] = tested on: HOP-92 NSCLC
[16] = tested on: HT29 colon
[17] = tested on: IGROV1 ovarian
[18] = tested on: K-562 leukemia
[19] = tested on: KM12 colon
[20] = tested on: LOX IMVI melanoma
[21] = tested on: M14 melanoma
[22] = tested on: MCF7 breast
[23] = tested on: MDA-MB-468 breast
[24] = tested on: NCI-H226 lung
[25] = tested on: NCI-H23 lung
[26] = tested on: NCI-H460 NSCLC
[27] = tested on: NCI-H522 lung
[28] = tested on: NCI/ADR-RES ovarian
[29] = tested on: OVCAR-3 ovarian
[30] = tested on: OVCAR-8 ovarian
[31] = tested on: RPMI-8226 leukemia
[32] = tested on: SF-268 CNS
[33] = tested on: SF-295 CNS
[34] = tested on: SF-539 CNS
[35] = tested on: SK-MEL-2 melanoma
[36] = tested on: SK-MEL-28 melanoma
[37] = tested on: SK-MEL-5 melanoma
[38] = tested on: SK-OV-3 ovarian
[39] = tested on: SN12C renal
[40] = tested on: SNB-19 CNS
[41] = tested on: SNB-75 CNS
[42] = tested on: SR leukemia
[43] = tested on: SW-620 colon
[44] = tested on: U251 glioblastoma
[45] = tested on: UACC-257 melanoma
[46] = tested on: UACC-62 melanoma
[47] = tested on: UO-31 renal
[48] = tested on: EKVX NSCLC
[49] = tested on: HS 578T breast
[50] = tested on: MALME-3M melanoma
[51] = tested on: MDA-MB-231 breast
[52] = tested on: MDA-MB-435 melanoma
[53] = tested on: MOLT-4 leukemia
[54] = tested on: NCI-H322M lung
[55] = tested on: OVCAR-4 ovarian
[56] = tested on: OVCAR-5 ovarian
[57] = tested on: PC-3 prostate
[58] = tested on: RXF 393 renal
[59] = tested on: T-47D breast
[60] = tested on: TK-10 renal

SMILES: Nc1ccn(C2OC(CO)C(O)C2O)c(=O)n1 (stereo unspecified)
- GI50 [1]: 218 nM
- GI50 [2]: 270 nM
- GI50 [3]: 75.1 nM
- GI50 [4]: 196 nM
- TGI [4]: 1110 nM
- GI50 [5]: 602 nM
- GI50 [6]: 446 nM
- GI50 [7]: < 13.7 nM
- TGI [7]: 20.5 nM
- GI50 [8]: 58.8 nM
- TGI [8]: 2640 nM
- GI50 [9]: 501 nM
- TGI [9]: > 30800 nM
- GI50 [10]: 84.7 nM
- GI50 [11]: 69.5 nM
- GI50 [12]: 328 nM
- GI50 [13]: 182 nM
- TGI [13]: 759 nM
- GI50 [14]: 63.9 nM
- TGI [14]: 706 nM
- GI50 [15]: 10600 nM
- GI50 [16]: 1480 nM
- GI50 [17]: 2390 nM
- GI50 [18]: 155 nM
- GI50 [19]: 6670 nM
- GI50 [20]: 286 nM
- TGI [20]: 9950 nM
- GI50 [21]: 148 nM
- TGI [21]: 1950 nM
- GI50 [22]: 99.1 nM
- GI50 [23]: 1140 nM
- GI50 [24]: 1740 nM
- GI50 [25]: 106 nM
- TGI [25]: 1010 nM
- GI50 [26]: 34.3 nM
- TGI [26]: 366 nM
- GI50 [27]: 85.8 nM
- GI50 [28]: 446 nM
- GI50 [29]: 6700 nM
- GI50 [30]: 102 nM
- GI50 [31]: 3490 nM
- GI50 [32]: 1030 nM
- GI50 [33]: 2140 nM
- TGI [33]: 12000 nM
- GI50 [34]: 1800 nM
- TGI [34]: > 95600 nM
- GI50 [35]: > 21400 nM
- GI50 [36]: 171 nM
- GI50 [37]: 249 nM
- TGI [37]: 790 nM
- GI50 [38]: 1890 nM
- GI50 [39]: 1240 nM
- GI50 [40]: 738 nM
- TGI [40]: > 27200 nM
- GI50 [41]: 8640 nM
- GI50 [42]: 103 nM
- TGI [42]: 235 nM
- GI50 [43]: 581 nM
- GI50 [44]: 1060 nM
- GI50 [45]: 2230 nM
- TGI [45]: > 42500 nM
- GI50 [46]: 732 nM
- GI50 [47]: 406 nM

SMILES: CN(C)C/C=C/C(=O)Nc1cc2c(Nc3ccc(F)c(Cl)c3)ncnc2cc1O[C@H]1CCOC1
- GI50 [1]: 763 nM
- TGI [1]: 2190 nM
- GI50 [2]: 126 nM
- TGI [2]: 1540 nM
- GI50 [3]: 436 nM
- TGI [3]: 2330 nM
- GI50 [4]: < 10 nM
- TGI [4]: 1420 nM
- GI50 [5]: 617 nM
- TGI [5]: 1920 nM
- GI50 [6]: 138 nM
- TGI [6]: 1570 nM
- GI50 [8]: 2080 nM
- TGI [8]: 10300 nM
- GI50 [9]: 383 nM
- TGI [9]: 3610 nM
- GI50 [48]: < 10 nM
- TGI [48]: 2160 nM
- GI50 [10]: 1340 nM
- TGI [10]: 2810 nM
- GI50 [11]: 551 nM
- TGI [11]: 1950 nM
- GI50 [12]: 627 nM
- TGI [12]: 2000 nM
- GI50 [13]: 340 nM
- TGI [13]: 1300 nM
- GI50 [14]: 1910 nM
- TGI [14]: 5050 nM
- GI50 [15]: 499 nM
- TGI [15]: 2510 nM
- GI50 [49]: 1450 nM
- TGI [49]: 3140 nM
- GI50 [16]: 2000 nM
- TGI [16]: 11400 nM
- GI50 [17]: < 10 nM
- TGI [17]: 1090 nM
- GI50 [19]: 1230 nM
- TGI [19]: 3070 nM
- GI50 [20]: 1050 nM
- TGI [20]: 2240 nM
- GI50 [21]: 1310 nM
- TGI [21]: 2590 nM
- GI50 [50]: 1420 nM
- TGI [50]: 2730 nM
- GI50 [22]: 1220 nM
- TGI [22]: 2780 nM
- GI50 [51]: 386 nM
- TGI [51]: 1870 nM
- GI50 [52]: 2010 nM
- TGI [52]: 9460 nM
- GI50 [23]: < 10 nM
- GI50 [53]: 232 nM
- TGI [53]: 1260 nM
- GI50 [24]: 907 nM
- TGI [24]: 2210 nM
- GI50 [25]: 1320 nM
- TGI [25]: 2780 nM
- GI50 [54]: < 10 nM
- TGI [54]: 13.1 nM
- GI50 [26]: 1790 nM
- TGI [26]: 3800 nM
- GI50 [27]: < 10 nM
- TGI [27]: 34.4 nM
- GI50 [28]: 1400 nM
- TGI [28]: 5410 nM
- GI50 [29]: 79.8 nM
- TGI [29]: 928 nM
- GI50 [55]: 2050 nM
- TGI [55]: 6590 nM
- GI50 [56]: 1050 nM
- TGI [56]: 7640 nM
- GI50 [30]: 1200 nM
- TGI [30]: 2770 nM
- GI50 [57]: 1570 nM
- TGI [57]: 3580 nM
- GI50 [31]: 1280 nM
- TGI [31]: 2550 nM
- GI50 [58]: 226 nM
- TGI [58]: 838 nM
- GI50 [32]: 1390 nM
- TGI [32]: 3910 nM
- GI50 [33]: 3930 nM
- TGI [33]: 14600 nM
- GI50 [34]: 1410 nM
- TGI [34]: 2780 nM
- GI50 [36]: 1990 nM
- TGI [36]: 5180 nM
- GI50 [37]: 1020 nM
- TGI [37]: 2190 nM
- GI50 [38]: 112 nM
- TGI [38]: 8400 nM
- GI50 [39]: 316 nM
- TGI [39]: 6530 nM
- GI50 [40]: 1910 nM
- TGI [40]: 10600 nM
- GI50 [41]: 429 nM
- TGI [41]: 2960 nM
- GI50 [42]: 1210 nM
- TGI [42]: 2450 nM
- GI50 [43]: 1800 nM
- TGI [43]: 5100 nM
- GI50 [59]: 17.1 nM
- TGI [59]: 2540 nM
- GI50 [60]: < 10 nM
- TGI [60]: 11200 nM
- GI50 [44]: 1310 nM
- TGI [44]: 4050 nM
- GI50 [45]: 1330 nM
- TGI [45]: 2620 nM
- GI50 [46]: 1370 nM
- TGI [46]: 2780 nM
- GI50 [47]: 184 nM
- TGI [47]: 10700 nM
